# Source: ChEMBL document CHEMBL1201862, “PubChem BioAssay data set” (2004)
# Activity calls are given as the source filed them. Rule as the data show it: actives have a measured IC50 and inactives only a lower limit.
# Target: Envelope glycoprotein gp160 (Human immunodeficiency virus 1, UniProt Q6QLK5)
# Assay: cell-free HIV fusion peptide-binding blockers – biochemical, uHTS, fluorescence dequenching, […] (AID 1986)
# Envelope glycoprotein gp160, sequence (Q6QLK5 whole entry, the tested form may be a part): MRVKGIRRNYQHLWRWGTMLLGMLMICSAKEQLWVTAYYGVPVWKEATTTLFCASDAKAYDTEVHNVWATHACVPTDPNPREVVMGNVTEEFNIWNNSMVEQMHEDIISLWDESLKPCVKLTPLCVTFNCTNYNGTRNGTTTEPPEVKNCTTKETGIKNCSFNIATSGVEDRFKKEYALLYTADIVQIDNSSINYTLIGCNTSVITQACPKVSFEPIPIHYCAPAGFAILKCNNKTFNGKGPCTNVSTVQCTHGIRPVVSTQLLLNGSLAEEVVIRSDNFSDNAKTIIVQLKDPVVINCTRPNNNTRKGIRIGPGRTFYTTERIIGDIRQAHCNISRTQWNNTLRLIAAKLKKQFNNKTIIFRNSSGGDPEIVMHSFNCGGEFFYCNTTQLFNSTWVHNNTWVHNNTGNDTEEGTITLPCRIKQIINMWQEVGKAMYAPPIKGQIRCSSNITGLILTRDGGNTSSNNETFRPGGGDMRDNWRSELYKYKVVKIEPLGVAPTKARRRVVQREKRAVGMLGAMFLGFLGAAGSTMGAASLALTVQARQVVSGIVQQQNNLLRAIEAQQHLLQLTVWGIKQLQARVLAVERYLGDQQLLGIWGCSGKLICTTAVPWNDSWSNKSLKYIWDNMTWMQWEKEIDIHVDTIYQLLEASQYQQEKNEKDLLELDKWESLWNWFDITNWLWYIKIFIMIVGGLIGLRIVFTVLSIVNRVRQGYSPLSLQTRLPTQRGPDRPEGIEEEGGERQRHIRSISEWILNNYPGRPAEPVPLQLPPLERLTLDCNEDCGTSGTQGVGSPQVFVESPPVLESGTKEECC
row,Compound,IC50
1,O=C(O)c1cccc(-n2cccc2/C=C2/NC(=O)N(c3ccc(Cl)cc3)C2=O)c1,16.9 µM (active)
2,COc1cc(/C=C2\C(=N)N3N=C(S(C)(=O)=O)SC3=NC2=O)cc(OC)c1OCCOc1cccc(C)c1,13.8 µM (active)
3,N#Cc1c(O)nc(SCC(=O)Nc2ccc(OC(F)(F)Cl)cc2)nc1-c1ccccc1,15.6 µM (active)
